Columns and labels:
[1] = tested on: CD-1 (Crl.) derived male mice; assay: Phorbol Ester Induced Mouse Ear Edema Model; assay type: in vivo; details: topical, 6 h, vehicle not given, ear swelling 6 hours after PMA
Procedure, shortened: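 Test compounds in acetone:ethanol 1:1 were applied topically to both ears 30 min before and 15 min after PMA challenge; dexamethasone positive control followed the same schedule. Ear thickness was measured by micrometer 6 h after PMA, and percent inhibition was calculated from ear-thickness increase versus vehicle controls.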

BALB/c male mice = assay: Oxazolone Induced Mouse Ear Edema Model; assay type: in vivo; details: topical, 24 h
Procedure: 2. In Vivo Anti-Inflammation Activity in Oxazolone Induced Mouse Ear Edema Model
Groups of 5 BALB/c male mice weighing 23±2 g were used. The preshaved abdomens of test animals were sensitized by application of 100 μl, of 1.5% oxazolone solution dissolved in acetone. Seven days after the initial sensitization, test substances, as well as vehicle (acetone:ethanol/1:1, 20 μL/ear) were each administered topically to the anterior and posterior surfaces of the right ear 30 minutes before, and 15 minutes after, challenge by a second application of oxazolone (1% in acetone, […]) via topical route. As a positive control, indomethacin (0.3 mg/ear×2) was administered topically using the same treatment regime as for the test compounds. Twenty-four hours after the second application of oxazolone, the ear thickness of each mouse was measured with a Dyer model micrometer gauge. A 30 percent or more inhibition in ear swelling relative to the vehicle control was considered significant and indicated possible anti-inflammatory activity.

hERG-channel = hERG-channel (Homo sapiens, UniProt Q12809); assay: hERG-channel block; assay type: biochemical; details: in vitro screening
hERG-channel, sequence (Q12809 whole entry): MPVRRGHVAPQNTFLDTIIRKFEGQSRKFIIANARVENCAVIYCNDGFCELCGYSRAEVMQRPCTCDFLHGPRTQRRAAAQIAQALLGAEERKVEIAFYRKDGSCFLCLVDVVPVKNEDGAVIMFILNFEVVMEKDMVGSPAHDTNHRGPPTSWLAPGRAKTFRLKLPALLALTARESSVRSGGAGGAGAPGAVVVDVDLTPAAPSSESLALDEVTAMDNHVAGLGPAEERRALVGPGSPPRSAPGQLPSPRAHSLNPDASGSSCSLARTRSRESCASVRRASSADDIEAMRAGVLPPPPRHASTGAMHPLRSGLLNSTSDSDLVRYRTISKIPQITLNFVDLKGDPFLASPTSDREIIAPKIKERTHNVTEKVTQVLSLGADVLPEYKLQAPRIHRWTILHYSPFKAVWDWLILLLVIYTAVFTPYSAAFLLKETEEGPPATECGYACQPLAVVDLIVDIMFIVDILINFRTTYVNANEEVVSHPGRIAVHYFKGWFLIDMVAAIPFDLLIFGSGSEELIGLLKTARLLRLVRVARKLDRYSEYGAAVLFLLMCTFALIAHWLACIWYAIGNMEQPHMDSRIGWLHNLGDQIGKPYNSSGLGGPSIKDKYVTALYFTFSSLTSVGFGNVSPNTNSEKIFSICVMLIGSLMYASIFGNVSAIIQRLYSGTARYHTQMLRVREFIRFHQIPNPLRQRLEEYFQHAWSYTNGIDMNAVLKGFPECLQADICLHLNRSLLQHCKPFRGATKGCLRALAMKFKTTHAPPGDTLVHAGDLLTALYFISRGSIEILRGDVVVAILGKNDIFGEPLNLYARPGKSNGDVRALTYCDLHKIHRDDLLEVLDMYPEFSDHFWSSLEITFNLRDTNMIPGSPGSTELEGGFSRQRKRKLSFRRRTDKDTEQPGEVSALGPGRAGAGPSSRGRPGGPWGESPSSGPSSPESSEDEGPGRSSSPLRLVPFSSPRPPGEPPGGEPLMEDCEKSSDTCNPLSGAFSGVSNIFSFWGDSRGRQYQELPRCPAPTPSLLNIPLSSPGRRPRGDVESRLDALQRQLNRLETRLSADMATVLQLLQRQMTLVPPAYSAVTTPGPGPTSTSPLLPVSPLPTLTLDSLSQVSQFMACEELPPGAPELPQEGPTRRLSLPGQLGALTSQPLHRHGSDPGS

[2] = tested on: TNF-α secretion from peripheral blood mononuclear cells (PBMCs); assay: TNF-α secretion from PBMCs stimulated by LPS; assay type: cell-based, human; details: Homo sapiens, PBMC; PBMCs stimulated by LPS; read-out: TNF-α secretion IC50
Excerpt: (§1) Compounds were screened by a biochemical assay against PDE4 enzyme and cell-based cytokine release assays using PBMCs stimulated by LPS or phytohemagglutinin (PHA).

[3] = tested on: IL-2 secretion from PBMCs; assay: IL-2 secretion from PBMCs stimulated with PHA; assay type: cell-based, human; details: Homo sapiens, PBMC; PBMCs stimulated with PHA; read-out: IL-2 secretion IC50
Excerpt: as §1

[4] = tested on: IFN-γ secretion from PBMCs; assay: IFN-γ secretion from PBMCs stimulated with PHA; assay type: cell-based, human; details: Homo sapiens, PBMC; PBMCs stimulated with PHA; read-out: IFN-γ secretion IC50
Excerpt: as §1

[5] = tested on: T1, phosphodiesterase 4 (PDE4) enzyme derived from human U937 cells; assay: PDE4 enzyme activity (enzyme derived from human U937 cells); assay type: biochemical; details: biochemical assay, PDE4 enzyme derived from human U937 cells; read-out: PDE4 IC50
T1 construct: PDE4 IC50; other: biochemical assay, PDE4 enzyme derived from human U937 cells; other: PDE4 in human U937 cells
Excerpt: The structure-activity relationships of novel boron-containing anti-inflammatory agents was investigated.
as §1

PMA induced ear edema = PMA induced ear edema (acute skin irritation model); assay type: in vivo
[6] = tested on: oxazolone induced ear swelling; assay: Oxazolone induced ear swelling (allergic contact dermatitis model); assay type: in vivo; details: topical
p450 enzyme = p450 enzyme inhibition screen; assay type: in vitro ADME; details: in vitro screening
[7] = Pharmacokinetic analysis in the rat; assay type: in vivo
[8] = Dermal application on the Göttingen minipig (plasma level, dermal irritation); assay type: in vivo; details: Göttingen, minipig, plasma, topical, 5 % ointment or cream over 15% body surface area; dermal 5% C27 ointment or cream over 15% body surface area; LLOQ=0.01 μg/ml; read-out: plasma levels of the compound
Göttingen minipig = assay: as above; assay type: in vivo; details: 5% C27 ointment or cream, after 24 hours of exposure
L929 = assay: Cytotoxicity against L929 cell line; assay type: cell-based
HepG2 = assay: Cytotoxicity against HepG2 cell line; assay type: cell-based
in vivo = details: shrew

N#Cc1ccc(Oc2ccc3c(c2)COB3O)cc1C#N [C27, 5-(3,4-Dicyanophenoxy)-1,3-dihydro-1-hydroxy-2,1-benzoxaborole]
inhibition in vivo at 1 mg ([1]; 1 mg/ear × 2 topical): 60 to 90%
inhibition in vivo at 3 mg ([1]; 3 mg/ear × 2 topical): 60 to 90%
inhibition in vivo at 3 mg (BALB/c male mice): 40 to 60%
hERG inhibition (hERG-channel): no significant
IC50 [2]: 160 nM
IC50 [3]: 180 nM
IC50 [4]: 220 nM
IC50 [5]: 60 nM
inhibition of PMA induced ear edema (PMA induced ear edema; acetone/ethanol vehicle, 5% C27, 15% dexamethasone, p<0.01): 82%
lowest active concentration in PMA ear edema model (PMA induced ear edema; ointment vehicle): 0.01%
inhibition of oxazolone induced ear swelling [6]: significantly inhibits
p450 enzyme inhibition (p450 enzyme): no significant
mean plasma residence time ([7]; intravenous dosing at 20 mg/kg): 0.64 h
bioavailability ([7]; plasma, oral dosing at 100 mg/kg): 7%
concentration at 24 h [8]: < 10 ng/mL
dermal irritation (Göttingen minipig): no dermal irritation
cytotoxicity (L929): > 100 micro M
cytotoxicity (HepG2): > 100 micro M
Cmax (in vivo): 12400 ng/mL
